According to patent US20210205236A1, “THERAPEUTIC COMBINATIONS OF BOSWELLIA EXTRACT AND CANNABINOIDS” (priority 2018, published 2021):
Where two headings read alike, the source gives them in different places.

Assays:
[1] = biological target: T1, CB1 receptor (Homo sapiens, UniProt P21554); format: cell-based
T1 construct: expressed in transfected cells

[2] = biological target: T1, CB1 receptor; assay: cell-based; format: cell-based; details: for Effect of cannabinoid on AKBA CB1R positive allosteric activity: AKBA 50 and 100 μM, THCA 10 μM or CBD 1 μM; for Experiment 1 % of activity / Experiment 2 % of activity / Experiment 3 % of activity: CP55940-induced activity = 100%
[3] = THCA or THC 10 μM without AKBA, Table 3 data re-expressed as fold change
[4] = CBD 1 μM without AKBA, Table 3 data re-expressed as fold change

T1 sequence (P21554 whole entry): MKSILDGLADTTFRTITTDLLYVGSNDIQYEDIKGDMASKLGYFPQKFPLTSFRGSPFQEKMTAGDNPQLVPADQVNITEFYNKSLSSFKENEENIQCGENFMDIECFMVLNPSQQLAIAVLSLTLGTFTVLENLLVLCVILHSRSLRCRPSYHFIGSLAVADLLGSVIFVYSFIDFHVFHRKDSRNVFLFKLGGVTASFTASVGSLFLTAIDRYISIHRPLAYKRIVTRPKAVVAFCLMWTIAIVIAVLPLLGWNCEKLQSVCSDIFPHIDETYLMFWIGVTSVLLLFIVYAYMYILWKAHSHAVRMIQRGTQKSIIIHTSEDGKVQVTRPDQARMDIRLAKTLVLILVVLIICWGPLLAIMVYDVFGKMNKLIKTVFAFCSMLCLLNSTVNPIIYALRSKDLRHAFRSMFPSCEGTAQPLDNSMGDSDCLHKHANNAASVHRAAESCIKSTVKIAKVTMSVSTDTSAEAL

## CCCCCc1cc2c(c(O)c1C(=O)O)[C@@H]1C=C(C)CC[C@H]1C(C)(C)O2 [THCA, tetrahydrocannabinolic acid]
[1]; THCA or THC alone, 10 μM
  Conclusions: Is CB1R agonist effect observed?: Negative (Only treatments that the mean of three consecutive independent experiments shows a positive result: CB1R activity ≥ 2.5-fold increase or ≥ 4-fold increase are considered CB1R agonists or CB1R positive allosteric modulators)
  Experiment 1 Fold change: 1.2 Fold change
  Experiment 2 Fold change: 1.1 Fold change
  Experiment 3 Fold change: 0.8 Fold change
[2]
  Effect of cannabinoid on AKBA CB1R positive allosteric activity: reduced the AKBA allosteric activity
[2]; THCA or THC 10 μM without AKBA, % of activity data
  Conclusions: Is CB1R antagonist effect observed?: Negative (Only treatments that the mean of three consecutive independent experiments show a positive result (CB1R activity ≤ 50%) are considered antagonists of CB1R activity)
[2]; THCA or THC 10 μM without AKBA
  Experiment 1 % of activity: 163.2%
  Experiment 2 % of activity: 118.4%
  Experiment 3 % of activity: 86.5%
[2]; [3]
  Experiment 1 Fold change: 4.1 Fold change
  Experiment 2 Fold change: 3.0 Fold change
  Experiment 3 Fold change: 2.2 Fold change
[2]; THCA or THC 10 μM without AKBA, positive allosteric activity, fold change data
  Conclusions: Is CB1R antagonist effect observed?: Negative (Only treatments that the mean of three consecutive independent experiments show a positive result (CB1R activity ≥ 4-fold change) are considered positive CB1R allosteric agonists)

## CCCCCCC(C)(C)c1ccc([C@@H]2C[C@H](O)CC[C@H]2CCCO)c(O)c1 [CP, CP-55940, reference compound]
[1]
  Experiment 1 Fold change: 2.5 Fold change
  Experiment 2 Fold change: 2.5 Fold change
  Experiment 3 Fold change: 2.5 Fold change
[2]
  Experiment 1 Fold change: 2.5 Fold change
  Experiment 2 Fold change: 2.5 Fold change
  Experiment 3 Fold change: 2.5 Fold change
[2]; read-out: Experiment 1 % of activity
  activity at […]: 100%
[2]; read-out: Experiment 2 % of activity
  activity at […]: 100%
[2]; read-out: Experiment 3 % of activity
  activity at […]: 100%

## C=C(C)[C@@H]1CCC(C)=C[C@H]1c1c(O)cc(CCCCC)cc1O [CBD, cannabidiol, reference compound]
[2]
  Effect of cannabinoid on AKBA CB1R positive allosteric activity: almost abolished
[2]; CBD 1 μM without AKBA, % of activity data
  Conclusions: Is CB1R antagonist effect observed?: + (A reduction of the percentage below 50% indicates CB1R antagonistic activity)
[2]; CBD 1 μM without AKBA
  Experiment 1 % of activity: 66.2%
  Experiment 2 % of activity: 70.7%
  Experiment 3 % of activity: 69.5%
[2]; [4]
  Experiment 1 Fold change: 1.7 Fold change
  Experiment 2 Fold change: 1.8 Fold change
  Experiment 3 Fold change: 1.7 Fold change
[2]; CBD 1 μM without AKBA, positive allosteric activity, fold change data
  Conclusions: Is CB1R antagonist effect observed?: Negative (Only treatments that the mean of three consecutive independent experiments show a positive result (CB1R activity ≥ 4-fold change) are considered positive CB1R allosteric agonists)
